This is an account of results in US20030236276A1, “Pyrrolo[2.1-a]isoquinoline derivatives” (priority 2001, published 2003).

Assay [1] concerns MDA-MB-231 human breast carcinoma cells. In words: In vitro proliferation inhibition assay (LDH activity, 72 hours). Particulars: MDA-MB-231 cells; for inhibition at 10 µM: read-out: % inhibition at a concentration of 10 μM; for inhibition at 2 µM: read-out: % inhibition at a concentration of 2 μM. It counts as cell-based. As to the method: In vitro Proliferation Inhibition Assay:
MDA-MB-231 human breast carcinoma cells (ATCC #HTB26) were cultured in standard growth medium (DMEM), supplemented with 10% heat-inactivated FBS, 10 mM HEPES, 2 mM glutamine, 100 U/mL penicillin, and 100 μg/mL streptomycin) at 37° C. in 5% CO2 (vol/vol) in a humidified incubator. Cells were plated at a density of 3000 cells per well in 100 μL growth medium in a 96 well culture dish. 24 hours after plating, lactate dehydrogenase (LDH) activity was determined using the Cytotox 96 Non-radioactive Cytotoxicity Kit (Promega, Madison Wis., U.S.A.) to yield T0h LDH values. Briefly, cells were lysed with the addition of 200 μL of Lysis Buffer (included in the Promega Kit) and lysates were further diluted 1:50 in Lysis Buffer. 50 μL of diluted cell lysate were transferred to a fresh 96 well culture plate. The assay was initiated with the addition of 50 μL of substrate per well. Color development was allowed to proceed for 10-15 minutes. The assay was terminated with the addition of 50 μL of Stop Solution (included in the Promega Kit). Optical densities were determined spectrophotometrically at 490 nm in a 96 well plate reader (SpectraMax 250, Molecular Devices, Sunnyvale, Calif., U.S.A.).
Test compounds were dissolved in 100% DMSO to prepare 10 mM stocks. Stocks were further diluted 1:250 in growth medium to yield working stocks of 40 μM test compound in 0.4% DMSO. Test compounds were serially diluted in growth medium containing 0.4% DMSO to maintain constant DMSO concentrations for all wells. 50 μL of fresh growth medium and 50 μL of diluted test compound were added to each culture well to give a final volume of 200 μL. The cells with and without individual test compounds were incubated for 72 hours at which time LDH activity was measured to yield T72h values. Optionally, the IC50 values can be determined with a least squares analysis program using compound concentration versus percent inhibition.
% Inhibition=[1−(T72h test−T0h)/(T72h ctrl−T0h)]×100
T72h test=LDH activity at 72 hours in the presence of test compound
T72h ctrl=LDH activity at 72 hours in the absence of test compound
T0h=LDH activity at Time Zero

Assay [2] concerns the target T1, PDE 10a (Homo sapiens, UniProt Q9Y233).
T1 construct: Full-length recombinant PDE 10a was expressed in Sf9 insect cells; made in house; host or cells: Sf9 insect cells (baculovirus, Bac-to-Bac)
In words: In vitro enzyme inhibition assay (PDE 10a, scintillation proximity, [3H]cAMP substrate). It counts as biochemical. The settings on record: full-length recombinant PDE 10a, crude Sf9 cell lysate; 60 minutes, room temperature. As to the method: In vitro Enzyme Inhibition Assay:
Full-length recombinant PDE 10a was expressed in Sf9 insect cells (Invitrogen, Carlsbad, Calif., U.S.A.) using the Bac-to-Bac™ Baculovirus Expression System (Life Technologies, Gaithersburg, Md., U.S.A.). 48 hours post infection, cells were harvested and resuspended in 20 mL (per 1L culture) Lysis Buffer (50 mM Tris-HCl, pH 7.4, 50 mM NaCl, 1 mM MgCl2, 1.5 mM EDTA, 10% glycerol plus 20 μL Protease Inhibitor Cocktail Set III [CalBiochem, La Jolla, Calif., U.S.A.]). Cells were sonicated at 4° C. for 1 minute and centrifuged at 10,000 RPM for 30 minutes at 4° C. Supernatant was removed and stored at −20° C. for activity assays.
The test compounds were serially diluted in DMSO using two-fold dilutions to stock concentrations ranging typically from 200 μM to 1.6 μM (final concentrations in the assay range from 4 μM to 0.032 μM). 96-well assay isoplates (Wallac Inc., Atlanta, Ga., U.S.A.) were loaded with 2 μL of the serially diluted individual test compounds followed by 50 μL of a dilution of crude recombinant PDE 10a-containing sf9 cell lysate. The dilution of the lysate was selected such that less than 70% of the substrate is converted during the later incubation (typical dilution: 1:10000; dilution buffer: 50 mM Tris/HCl pH 7.5, 8.3 mM MgCl2, 1.7 mM EDTA, 0.2% BSA). The substrate, [5′,8-^3H] adenosine 3′,5′-cyclic phosphate (1 μCi/μL; Amersham Pharmacia Biotech., Piscataway, N.J., U.S.A.), was diluted 1:2000 in assay buffer (assay buffer: 50 mM Tris/HCl pH 7.5, 8.3 mM MgCl2, 1.7 mM EDTA) to give a final working concentration of 0.0005 μCi/μL. The enzymatic assay was initiated by addition of 50 μL (0.025 μCi) of diluted substrate. Reactions were incubated at room temperature for 60 minutes and terminated by addition of 25 μL of 18 mg/mL Yttrium Scintillation Proximity Beads (Amersham Pharmacia Biotech., Piscataway, N.J., U.S.A.). Plates were sealed and incubated at room temperature for 60 minutes. Plates were read for 30 seconds/well using a Microbeta counter (Wallac Inc., Atlanta, Ga., U.S.A.). The IC50 values were determined by plotting compound concentration versus percent inhibition.
(In general: SPA uses beads or plates that emit light when radiolabelled molecules are held near them.)

T1 sequence (Q9Y233 1-779 isoform Q9Y233-1): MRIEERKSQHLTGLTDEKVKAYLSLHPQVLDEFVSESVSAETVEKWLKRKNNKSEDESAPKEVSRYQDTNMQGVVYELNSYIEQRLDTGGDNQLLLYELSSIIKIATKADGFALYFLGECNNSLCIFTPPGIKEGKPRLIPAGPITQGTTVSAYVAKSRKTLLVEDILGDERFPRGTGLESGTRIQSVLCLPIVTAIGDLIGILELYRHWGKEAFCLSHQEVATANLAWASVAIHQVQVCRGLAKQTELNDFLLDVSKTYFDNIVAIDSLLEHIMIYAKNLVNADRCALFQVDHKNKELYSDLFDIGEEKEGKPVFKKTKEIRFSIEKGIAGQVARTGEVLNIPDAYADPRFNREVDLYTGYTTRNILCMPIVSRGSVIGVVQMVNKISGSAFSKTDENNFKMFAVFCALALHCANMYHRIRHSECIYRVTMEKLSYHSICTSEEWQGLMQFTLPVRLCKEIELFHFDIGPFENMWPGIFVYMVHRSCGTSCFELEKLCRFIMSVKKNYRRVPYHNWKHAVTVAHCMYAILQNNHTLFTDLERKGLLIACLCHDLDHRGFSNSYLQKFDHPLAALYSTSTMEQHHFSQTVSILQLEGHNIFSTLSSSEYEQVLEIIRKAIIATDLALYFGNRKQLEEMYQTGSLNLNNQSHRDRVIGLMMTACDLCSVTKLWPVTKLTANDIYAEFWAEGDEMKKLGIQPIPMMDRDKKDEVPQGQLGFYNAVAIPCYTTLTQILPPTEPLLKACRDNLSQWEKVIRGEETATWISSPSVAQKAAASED

A word on the IC50: it is the concentration needed to halve the response being measured. As for `CCOC(=O)c1c(C(C)C)c(C)n2c1-c1cc(OC)c(OC)cc1CC2` [Example 5], the inhibition at 10 µM in assay [1] stood at 87%. In addition, in assay [2], the IC50 is 370 nM.

As to `CCOC(=O)c1c(-c2cccc3ncc(C)cc23)c(C)n2c1-c1cc(OC)c(OC)cc1CC2` [Example 7], the inhibition at 10 µM in assay [1] amounted to 85%. The IC50 in assay [2] was found to be 140 nM. For the compound `CCCNC(=O)N1CCc2cc(-c3c(C(=O)OCC)c4n(c3C)CCc3cc(OC)c(OC)cc3-4)ccc21` [Example 81], the inhibition at 2 µM in assay [1] worked out at 89%. For the same compound, the IC50 in assay [2] was found to be 100 nM. For `CCOC(=O)c1c(-c2c[nH]c3ccc(Cl)cc23)c(C)n2c1-c1cc(OC)c(OC)cc1CC2` [Example 50], the inhibition at 2 µM in assay [1] is 77%. Further, in assay [2], the IC50 was 330 nM. On to `CCOC(=O)c1c(-c2cccc3c2ccn3CC)c(C)n2c1-c1cc(OC)c(OC)cc1CC2` [Example 57, Ethyl 2-(1-ethyl-1H-indol-4-yl)-8,9-dimethoxy-3-methyl-5,6-dihydropyrrolo[2,1-a]-isoquinoline-1-carboxylate], for which, in assay [1], the inhibition at 2 µM was 89%. Besides, the IC50 in assay [2] came to 1500 nM. For the compound `CCOC(=O)c1c(-c2ccc3ncoc3c2)c(C)n2c1-c1cc(OC)c(OC)cc1CC2` [Example 76, Ethyl 2-(1,3-benzoxazol-6-yl)-8,9-dimethoxy-3-methyl-5,6-dihydropyrrolo[2,1-a]isoquinoline-1-carboxylate], the inhibition at 2 µM in assay [1] was 63%. In addition, the IC50 in assay [2] was found to be 150 nM.

As to `CCOC(=O)c1c(-c2ccc3[nH]cc(C(C)=O)c3c2)c(C)n2c1-c1cc(OC)c(OC)cc1CC2` [Example 72], in assay [1], the inhibition at 2 µM is 81%. On to `CCOC(=O)c1c(-c2cccc3c(C(=O)c4ccccc4)c[nH]c23)c(C)n2c1-c1cc(OC)c(OC)cc1CC2` [Example 71], for which, in assay [1], the inhibition at 2 µM amounted to 72%. In assay [2], the IC50 is 170 nM. Regarding `CCOC(=O)c1c(-c2cccc3c(C(=O)C4CC4)c[nH]c23)c(C)n2c1-c1cc(OC)c(OC)cc1CC2` [Example 68, Ethyl 2-[3-(cyclopropylcarbonyl)-1H-indol-7-yl]-8,9-dimethoxy-3-methyl-5,6-dihydropyrrolo[2,1-a]isoquinoline-1-carboxylate], the inhibition at 2 µM in assay [1] turned out to be 43%. In the case of `CCOC(=O)c1c(-c2cn(Cc3ccccc3)c3ccccc23)c(C)n2c1-c1cc(OC)c(OC)cc1CC2` [Example 56], the inhibition at 2 µM in assay [1] came to 64%. Moreover, the IC50 in assay [2] stood at 68 nM. For `CCOC(=O)c1c(-c2ccc3c(c2)CCN3S(=O)(=O)c2ccccc2)c(C)n2c1-c1cc(OC)c(OC)cc1CC2` [Example 87], in that order: 95% and less than 30 nM. In the case of `CCOC(=O)c1c(-c2cn(C(C)=O)c3ccccc23)c(C)n2c1-c1cc(OC)c(OC)cc1CC2` [Example 8], the inhibition at 10 µM in assay [1] was determined as 84%. In addition, the IC50 in assay [2] worked out at 94 nM. With `CCOC(=O)c1c(-c2cccc3cc[nH]c23)c(C)n2c1-c1cc(OC)c(OC)cc1CC2` [Example 49], in assay [1], the inhibition at 2 µM is 91%. For the same compound, the IC50 in assay [2] was 110 nM. For the compound `CCOC(=O)c1c(-c2ccc3c(c2)CCN3S(C)(=O)=O)c(C)n2c1-c1cc(OC)c(OC)cc1CC2` [Example 88], the inhibition at 2 µM in assay [1] turned out to be 40%.

As for `CCOC(=O)c1c(-c2cn(C)c3ccccc23)c(C)n2c1-c1cc(OC)c(OC)cc1CC2` [Example 23], the inhibition at 2 µM in assay [1] is 90%. Further, the IC50 in assay [2] amounted to 71 nM.

For the compound `CCOC(=O)c1c(-c2cccc3c2ccn3CCC#N)c(C)n2c1-c1cc(OC)c(OC)cc1CC2` [Example 61], the inhibition at 2 µM in assay [1] turned out to be 90%. For the same compound, in assay [2], the IC50 came to 200 nM. Take `CCOC(=O)c1c(-c2c[nH]c3ccc(OC)cc23)c(C)n2c1-c1cc(OC)c(OC)cc1CC2` [Example 12]: in assay [1], the inhibition at 2 µM is 73%. Further, the IC50 in assay [2] was determined as 365 nM. For `CCOC(=O)c1c(-c2c[nH]c3cc(F)ccc23)c(C)n2c1-c1cc(OC)c(OC)cc1CC2` [Example 52], in that order: 81% and 220 nM.

On to `CCOC(=O)c1c(-c2c[nH]c3c(OC)cccc23)c(C)n2c1-c1cc(OC)c(OC)cc1CC2` [Example 46, Ethyl-2-(1H-7-methoxy-indol-3-yl)-8,9-dimethoxy-3-methyl-5,6-dihydropyrrolo[2,1-a]isoquinoline-1-carboxylate], for which, in assay [1], the inhibition at 2 µM came to 90%. Further, the IC50 in assay [2] was 220 nM.
